The test system of series [1] is Enterobacter cloacae RKI 146/09. The experiment in a line: microbe, parasite or virus in culture. It is filed as cell-based. The procedure: (§1) The strains that were used in this study (Table 2 and Table S1) were cultivated at 37 °C in cation-adjusted Mueller–Hinton broth (CAMB) in Erlenmeyer flasks, or on the same medium with agar in Petri dishes. Exceptionally, Mycobacterium smegmatis was cultivated at 37 °C in brain heart infusion (BHI) medium that was supplemented with 1% Tween-80 in Erlenmeyer flasks, or on the same medium lacking detergent but with agar in Petri dishes. Strains listed with Robert Koch Institute (RKI) strain numbers are clinical isolates from the RKI strain collection originating from hospitalized patients in Germany. The remaining strains originated from the Sanofi strain collection and they were originally purchased from the American Type Culture Collection or the German Collection of Microorganisms and Cell Cultures. Meropenem/colistin-resistant strains were maintained, as described above, with the appropriate antibiotic added at levels below the minimal inhibitory concentration (MIC).
(§2) The MIC values were determined in 384-well microtiter plates with an assay volume of 20 µL. Immediately before each assay, the cultures of test organisms (bacteria grown for 18 h, Candida albicans and M. smegmatis grown for 48 h) were diluted with the appropriate medium to a density of 1 × 10^6 cells/mL (C. albicans), 1 × 10^5 cells/mL (M. smegmatis) or 5 × 10^5 cells per mL (other species). […] We transferred 2-µL aliquots from this dilution series to new 384-well microtiter plates while using a CyBio-Well 384-channel automated pipettor (Analytic Jena, Jena, Germany) and added 18 µL of the diluted suspension of each test species using a Viafill reagent dispenser (Integra), thus reducing the final peptide concentration 10-fold to the range 1024–0.03125 µg/mL. […] The growth of M. smegmatis was measured using the BacTiter-Glo luminescence test system (Promega, Madison, WI, USA). The growth of the other species was determined by visual inspection of the microtiter plate and turbidimetry based on the optical density at 600 nm (OD600). The MIC was defined as the peptide concentration at which no bacterial growth was observed. We supplemented the test medium with either 150 mM NaCl or 1.25 mM CaCl2 to represent monovalent and divalent cations to simulate physiological conditions.

The next series has as its system A. baumannii RKI 19/09. Nature of the series: microbe, parasite or virus in culture. It is filed as cell-based, Acinetobacter baumannii. The procedure: as §1, §2
The next series has as its system K. pneumoniae RKI 268/15. It is filed as cell-based, Klebsiella pneumoniae. The procedure: as §1, §2
A further series relates to K. pneumoniae RKI 68/16. It is filed as cell-based, Klebsiella pneumoniae. On the procedure: as §1, §2
The test system of series [2] is Klebsiella oxytoca RKI 52/07. It is filed as cell-based. The method in brief:
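Broth microdilution in cation-adjusted Mueller–Hinton broth at 37 °C, with 18 h cultures diluted to 5 × 10^5 cells/mL and final peptide concentrations of 1024–0.03125 µg/mL. Growth was scored visually and by OD600. MIC is the lowest concentration with no growth; medium was optionally supplemented with 150 mM NaCl or 1.25 mM CaCl2.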

Another series deals with S. aureus ATCC 33592. It is filed as cell-based, Staphylococcus aureus. The method in brief:
(§3)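 Broth microdilution in cation-adjusted Mueller–Hinton broth, inoculum 5 × 10^5 cells/mL from 18 h cultures; final peptide range 1024–0.03125 µg/mL, medium supplemented with 150 mM NaCl or 1.25 mM CaCl2. Growth scored visually and by OD600; MIC = lowest concentration without growth.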

Series [3] has as its system Acinetobacter baumannii ATCC 19606. It is filed as cell-based. Put shortly: as §3
The subject of another series is Escherichia coli D31. It is filed as cell-based. The method in brief:
as §3

For series [4], the system named is Klebsiella pneumoniae DSM 30104. It is filed as cell-based. The method in brief:
as §3

Series [5] has as its system Pseudomonas aeruginosa ATCC 27853. It is filed as cell-based. The method in brief: as §3
For series [6], the system named is Staphylococcus aureus ATCC 25923. It is filed as cell-based. Put shortly:
as §3

The target in series [7] is human ERG (hERG) potassium channel (Homo sapiens, UniProt Q12809). The experiment in a line: cell-based. The procedure:
The interaction of the peptides with the human ERG (hERG) potassium channel was analyzed using the automated patch-clamp method. Chinese hamster ovary (CHO) hERG Duo cells constitutively expressing hERG (B’SYS) were diluted to 8 × 10^6 cells/mL in Ex-Cell CHO medium (Sigma–Aldrich) containing 25 mM HEPES, 100 U/mL penicillin-streptomycin, and 0.004% soybean trypsin inhibitor. The peptides were diluted from a stock concentration of 10 mM in DMSO to final concentrations of 0.12, 0.37, 1.1, 3.3, 10, and 30 μM (0.5–124 µg/mL for […], 0.51–128 µg/mL for EtCec2-a, 0.49–122 µg/mL for EtCec3-a, 0.8–200 µg/mL for EtDip) in extracellular medium (150 mM NaCl, 4 mM KCl, 2 mM CaCl2, 1 mM MgCl2, 10 mM HEPES, 10 mM glucose) containing 0.06% Pluronic F-68 and 0.3% residual DMSO. The response of hERG to each peptide was assessed while using a QPatch HTX station and QPlates (Sophion/Biolin Scientific, Ballerup, Denmark) by recording the tail current following channel repolarization. Half-maximal inhibitory concentrations (IC50) were determined from a series of six concentrations applied to the cells in ascending order. Terfenadine citrate was used as a positive control and extracellular medium as a negative control.

The next series can be described thus: Plasma stability. It is filed as in vitro ADME. As to conditions: 37 °C, LC-MS, triplicate; for remaining at 24 h, 5 µM: after 24 h, read-out: peptide remaining in plasma; for hydrolysis in plasma: 5 µM. On the procedure:
EtCec1-a, EtCec2-a, and EtDip were dissolved as 1 mM stock solutions in sterile deionized water and then incubated in 500 µL plasma from different species (human, mouse and rat) to a final concentration of 5 µM (20.7, 21.4, and 33.3 µg/mL for EtCec1-a, EtCec2-a, and EtDip, respectively) at 37 °C. At different time points (0, 1, 4, and 24 h), 100-µL samples were transferred to 500 µL ethanol containing 0.5% (v/v) NH3, and the plasma proteins were precipitated by centrifugation for 20 min. at 1735× g. EtCec1-a, EtCec2-a, and EtDip (10 µL injection volume) were analyzed in triplicate by LC-MS, and their stability was evaluated by comparing samples of with plasma incubated timepoints (t1, t4, t24) to untreated samples (t0). The peptides were separated on an AERIS Peptide 3.6-µm XB-C18 50 × 2.1 mm column (Phenomenex, Torrance, CA, USA) with an ascending acetonitrile gradient in water (that was supplemented with 0.1% formic acid) at a flow rate of 500 µL/min.

[8] abbreviates: CAMB + 0.075 µg/mL colistin (Col), n=3.
[9] abbreviates: CAMB adjusted to 150 mM NaCl, n=3.

Converted amounts (≈) assume the structure as drawn. Where two headings read alike, the source gives them in different places. No end group written: not given here. Bounds are passed on as bounds.

What is called IC50 is the point on the concentration scale where inhibition reaches its midpoint. Lower therefore signals greater potency in that assay. One may read the share remaining as what is left of the initial amount, in per cent.

Sequence of human ERG (hERG) potassium channel (Q12809 whole entry): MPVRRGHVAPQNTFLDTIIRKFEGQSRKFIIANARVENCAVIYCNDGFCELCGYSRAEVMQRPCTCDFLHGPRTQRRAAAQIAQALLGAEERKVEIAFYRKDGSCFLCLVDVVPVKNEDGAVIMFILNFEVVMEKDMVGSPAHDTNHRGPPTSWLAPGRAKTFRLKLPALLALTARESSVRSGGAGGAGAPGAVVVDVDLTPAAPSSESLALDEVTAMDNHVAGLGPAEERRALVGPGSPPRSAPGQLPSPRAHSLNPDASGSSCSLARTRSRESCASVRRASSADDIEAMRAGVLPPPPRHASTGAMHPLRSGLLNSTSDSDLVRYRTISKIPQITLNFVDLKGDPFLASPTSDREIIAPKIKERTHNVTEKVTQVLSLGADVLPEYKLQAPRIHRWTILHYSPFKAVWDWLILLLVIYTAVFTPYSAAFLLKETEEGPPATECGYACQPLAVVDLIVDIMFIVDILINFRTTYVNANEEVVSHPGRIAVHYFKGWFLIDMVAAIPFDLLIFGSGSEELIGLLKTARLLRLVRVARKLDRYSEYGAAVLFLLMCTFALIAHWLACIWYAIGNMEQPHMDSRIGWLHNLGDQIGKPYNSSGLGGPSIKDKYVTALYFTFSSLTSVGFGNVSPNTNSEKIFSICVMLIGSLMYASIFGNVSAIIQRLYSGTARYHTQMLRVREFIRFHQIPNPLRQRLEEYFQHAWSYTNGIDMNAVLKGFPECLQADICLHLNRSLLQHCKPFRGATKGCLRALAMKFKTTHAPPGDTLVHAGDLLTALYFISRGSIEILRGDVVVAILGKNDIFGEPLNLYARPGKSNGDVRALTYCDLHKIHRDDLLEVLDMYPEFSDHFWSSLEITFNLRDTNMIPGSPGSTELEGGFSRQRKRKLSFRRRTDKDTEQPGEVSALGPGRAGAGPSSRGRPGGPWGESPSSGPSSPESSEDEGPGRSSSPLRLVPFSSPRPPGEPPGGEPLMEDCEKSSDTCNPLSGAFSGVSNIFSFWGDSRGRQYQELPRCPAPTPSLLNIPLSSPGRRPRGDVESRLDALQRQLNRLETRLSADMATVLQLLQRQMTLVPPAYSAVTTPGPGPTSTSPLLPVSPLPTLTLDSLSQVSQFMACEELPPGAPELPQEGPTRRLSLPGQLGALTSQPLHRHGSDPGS

`C[C@@H](O)[C@H]1C(=O)N2C(C(=O)O)=C(S[C@@H]3CN[C@H](C(=O)N(C)C)C3)[C@H](C)[C@H]12` [MEM, meropenem]: the MIC in series [1] (Enterobacter cloacae, RKI146/09) is 16 µg/mL (≈ 41.7 µM); in the series on A. baumannii RKI 19/09 (Acinetobacter baumannii, RKI19/09, Table S1, RKI 19/09, read-out: MIC) it was more than 64 µg/mL; in the series on K. pneumoniae RKI 268/15 (Table S1, RKI 268/15) it was 16 µg/mL (≈ 41.7 µM); against K. pneumoniae RKI 68/16 (Table S1, RKI 68/16), not above 0.5 µg/mL; in series [2] (Table S1, RKI 52/07), 32 µg/mL (≈ 83.4 µM).

As to “GFLKKIGKKLEGAVQRTRDATIQTIAVAQAAANVAATAKQ-NH2 [EtCec1-NH2]”, the MIC is given as more than 1024 µg/mL against S. aureus ATCC 33592 (ATCC 33592, 18 h); 4 µg/mL in the series on A. baumannii RKI 19/09 (RKI 19/09, 18 h); 8 µg/mL in series [3] (ATCC 19606, 18 h); 4 µg/mL with Escherichia coli D31 (D31, 18 h); 4 µg/mL in series [4] (DSM 30104, 18 h); 32 µg/mL in [5] (ATCC 27853, 18 h). In series [6] (ATCC 25923, 18 h), this compound displayed an MIC of more than 1024 µg/mL. This compound also had an IC50 in series [7] of more than 30 µM. Moreover, the fraction remaining at 24 h, 5 µM in “Plasma stability” (human plasma) turned out to be 48%. The hydrolysis in plasma result in the series “Plasma stability” (mouse plasma, within 24 h) is recorded as “completely hydrolyzed”; in the series “Plasma stability” (rat plasma, within 24 h), “completely hydrolyzed”.

As for “GWLRDFGKRIERTGQNIRDATIQTIGIAQEAANVAATLK-NH2 [EtCec2-NH2]”, the MIC against S. aureus ATCC 33592 (CAMB, 18 h, 37 °C, n = 4) is listed as more than 1024 µg/mL; in [1] (setting [8]) it was 32 µg/mL; in [1] (setting [9]), 64 µg/mL; in series [1] (Table 4, CAMB, n=3), 32 µg/mL; in the series with A. baumannii RKI 19/09 (setting [8]) it was 8 µg/mL; against A. baumannii RKI 19/09 (setting [9]), 16 µg/mL. The MIC is reported as 8 µg/mL against A. baumannii RKI 19/09 (Table 4, CAMB, n=3); 64 µg/mL against K. pneumoniae RKI 268/15 (Table 4, CAMB, n=3); 128 µg/mL in the series on K. pneumoniae RKI 68/16 (Table 4, CAMB, n=3); 8 µg/mL in [3] (setting [8]); 8 µg/mL in [3] (setting [9]); 8 µg/mL in [3] (CAMB, 18 h, 37 °C, n = 4). Moreover, the MIC in series [3] (Table 4, CAMB, n=3) is given as 8 µg/mL; in the series on Escherichia coli D31 (CAMB, 18 h, 37 °C, n = 4) it was 4 µg/mL; in [2] (setting [8]) it was 2 µg/mL; in [2] (Table 5, CAMB, n=3), 32 µg/mL; in series [4] (setting [8]), 2 µg/mL; in series [4] (setting [9]) it was 32 µg/mL. Also, the MIC in series [4] (CAMB, 18 h, 37 °C, n = 4) is listed as 16 µg/mL; in series [4] (Table 4, CAMB, n=3), 16 µg/mL; in series [5] (CAMB, 18 h, 37 °C, n = 4), more than 1024 µg/mL; in series [6] (CAMB, 18 h, 37 °C, n = 4), more than 1024 µg/mL. For the same compound, the IC50 in [7] was more than 29.9 µM. The share remaining at 24 h, 5 µM in the series “Plasma stability” (human plasma) came to 22%. Also, the hydrolysis in plasma entry in “Plasma stability” (mouse plasma, within 24 h) is “completely hydrolyzed”; in the series “Plasma stability” (rat plasma, within 24 h), “completely hydrolyzed”.

With “QFNMQGGGSPRQGFDVNANARFPIWQSQNARNSVHGTASYAQHLGGPYGNSRPNFGGGLQFT [EtDip, diptericin-like peptide of Eristalis tenax]”, the MIC is listed as more than 1024 µg/mL against S. aureus ATCC 33592 (CAMB, 18 h, 37 °C, n = 4); more than 1024 µg/mL in [1] (setting [8]); more than 1024 µg/mL in [1] (Table 5, CAMB, n=3); 1024 µg/mL in the series on A. baumannii RKI 19/09 (setting [8]); more than 1024 µg/mL against A. baumannii RKI 19/09 (Table 5, CAMB, n=3); more than 1024 µg/mL in series [3] (setting [8]). The MIC in series [3] (CAMB, 18 h, 37 °C, n = 4) is recorded as more than 1024 µg/mL; in series [3] (Table 5, CAMB, n=3) it was more than 1024 µg/mL; in the series with Escherichia coli D31 (CAMB, 18 h, 37 °C, n = 4), more than 1024 µg/mL; in series [2] (setting [8]), 4 µg/mL; in series [2] (Table 5, CAMB, n=3), more than 1024 µg/mL; in [4] (setting [8]) it was 4 µg/mL. For the same compound, the MIC in series [4] (CAMB, 18 h, 37 °C, n = 4) is given as more than 1024 µg/mL; in series [4] (Table 5, CAMB, n=3), more than 1024 µg/mL; in series [5] (CAMB, 18 h, 37 °C, n = 4), more than 1024 µg/mL; in series [6] (CAMB, 18 h, 37 °C, n = 4) it was more than 1024 µg/mL. For the same compound, in series [7] (CHO hERG Duo cells, QPatch, tail current, six concentrations), the “IC50 hERG” value is reported as more than 200 µg/mL. Besides, the hydrolysis in plasma is not below 83% in the series “Plasma stability” (human plasma, after 1 h); not below 83% in the series “Plasma stability” (mouse plasma, after 1 h); not below 83% in “Plasma stability” (rat plasma, after 1 h).

For the origin of these results see PMC7284870, “Antimicrobial Peptides from Rat-Tailed Maggots of the Drone Fly Eristalis tenax Show Potent Activity against Multidrug-Resistant Gram-Negative Bacteria” (Microorganisms, 2020).
